In ChEMBL document CHEMBL1123701, “Synthesis and quantitative structure-activity relationship analysis of N-triiodoallyl- and N-iodopropargylazoles. New antifungal agents” (1987):
Converted amounts (≈) assume the structure as drawn.

What follows are compounds tested on Cryptococcus neoformans (assay: Antifungal activity against Cryptococcus neoformans Cr-1 strain).
Format: functional

Going from CCOCCc1nnn(CC(I)=C(I)I)n1 to IC(I)=C(I)Cn1nnnc1C1CC1, the MIC rises from 1.56 µg/mL (≈ 2.79 µM) to over 25 µg/mL.

Compared with IC#CCn1nnc(-c2ccc(C3N=NN=N3)cc2)n1, Fc1ccc(-c2nnn(CC#CI)n2)cc1 is lower in MIC: over 100 µg/mL for the first, 0.78 µg/mL (≈ 2.38 µM) for the second.

Going from O=[N+]([O-])c1c(Cl)cccc1-c1cn(CC#CI)cc1Cl to O=[N+]([O-])c1ccn(CC#CI)c1, the MIC falls from 25 µg/mL (≈ 59.4 µM) to 0.1 µg/mL (≈ 0.362 µM) (250-fold).

First: IC#CCn1ncnn1
Second: IC#CCn1cncn1
The MIC of the first is 2-fold lower: 0.39 µg/mL (≈ 1.67 µM) for the first, 0.78 µg/mL (≈ 3.35 µM) for the second.

Compared with COc1ccc(-c2nnnn2CC#CI)cc1, CN(C)c1ccc(-c2nnn(CC#CI)n2)cc1 is 2-fold higher in MIC: 25 µg/mL (≈ 73.5 µM) for the first, 50 µg/mL (≈ 142 µM) for the second.

Going from O=[N+]([O-])c1cn(CC#CI)cn1 to CC(C)(C)c1nnn(CC#CI)n1, the MIC rises from 0.1 µg/mL (≈ 0.361 µM) to 25 µg/mL (≈ 86.2 µM) (250-fold).

First: CC(C)Cc1nnnn1CC#CI
Second: CC(C)c1nnnn1CC#CI
The MIC of the first is 4-fold lower: 6.25 µg/mL (≈ 21.5 µM) for the first, 25 µg/mL (≈ 90.6 µM) for the second.

Compared with COC(=O)c1cccn1CC(I)=C(I)I, CCCCCCCc1nnn(CC#CI)n1 is 2-fold higher in MIC: 3.13 µg/mL (≈ 5.77 µM) for the first, 6.25 µg/mL (≈ 18.8 µM) for the second.

These compounds were tested on Candida albicans (assay: Antifungal activity against Candida albicans C-A-24 strain).
Format: functional

Going from CCOCCc1nnn(CC(I)=C(I)I)n1 to IC(I)=C(I)Cn1nnnc1C1CC1, the MIC rises from 3.13 µg/mL (≈ 5.59 µM) to 25 µg/mL (≈ 47.4 µM) (8-fold).

Going from IC#CCn1nnc(-c2ccc(C3N=NN=N3)cc2)n1 to Fc1ccc(-c2nnn(CC#CI)n2)cc1, the MIC falls from over 100 µg/mL to 0.78 µg/mL (≈ 2.38 µM).

Compared with O=[N+]([O-])c1c(Cl)cccc1-c1cn(CC#CI)cc1Cl, O=[N+]([O-])c1ccn(CC#CI)c1 is 32-fold lower in MIC: 25 µg/mL (≈ 59.4 µM) for the first, 0.78 µg/mL (≈ 2.83 µM) for the second.

Compared with IC#CCn1ncnn1, IC#CCn1cncn1 is 2-fold higher in MIC: 1.56 µg/mL (≈ 6.67 µM) for the first, 3.13 µg/mL (≈ 13.4 µM) for the second.

Going from COc1ccc(-c2nnnn2CC#CI)cc1 to CN(C)c1ccc(-c2nnn(CC#CI)n2)cc1, the MIC rises from 25 µg/mL (≈ 73.5 µM) to 50 µg/mL (≈ 142 µM) (2-fold).

First: O=[N+]([O-])c1cn(CC#CI)cn1
Second: CC(C)(C)c1nnn(CC#CI)n1
The MIC of the first is 2-fold higher: 6.25 µg/mL (≈ 22.6 µM) for the first, 3.13 µg/mL (≈ 10.8 µM) for the second.

CC(C)Cc1nnnn1CC#CI and CC(C)c1nnnn1CC#CI are the same in MIC: 12.5 µg/mL (≈ 43.1 µM) for the first, 12.5 µg/mL (≈ 45.3 µM) for the second.

Going from COC(=O)c1cccn1CC(I)=C(I)I to CCCCCCCc1nnn(CC#CI)n1, the MIC rises from 1.56 µg/mL (≈ 2.87 µM) to 12.5 µg/mL (≈ 37.6 µM) (8-fold).

What follows are compounds tested on Aspergillus fumigatus (assay: Antifungal activity against Aspergillus fumigatus Saito strain).
Format: functional

Compared with CCOCCc1nnn(CC(I)=C(I)I)n1, IC(I)=C(I)Cn1nnnc1C1CC1 is 2-fold higher in MIC: 0.78 µg/mL (≈ 1.39 µM) for the first, 1.56 µg/mL (≈ 2.96 µM) for the second.

Going from IC#CCn1nnc(-c2ccc(C3N=NN=N3)cc2)n1 to Fc1ccc(-c2nnn(CC#CI)n2)cc1, the MIC falls from over 100 µg/mL to 0.2 µg/mL (≈ 0.61 µM).

First: O=[N+]([O-])c1c(Cl)cccc1-c1cn(CC#CI)cc1Cl
Second: O=[N+]([O-])c1ccn(CC#CI)c1
The MIC of the first is 120-fold higher: 12.5 µg/mL (≈ 29.7 µM) for the first, 0.1 µg/mL (≈ 0.362 µM) for the second.

IC#CCn1ncnn1 and IC#CCn1cncn1 are the same in MIC: 0.39 µg/mL (≈ 1.67 µM) for the first, 0.39 µg/mL (≈ 1.67 µM) for the second.

Going from COc1ccc(-c2nnnn2CC#CI)cc1 to CN(C)c1ccc(-c2nnn(CC#CI)n2)cc1, the MIC rises from 0.78 µg/mL (≈ 2.29 µM) to 50 µg/mL (≈ 142 µM) (64-fold).

First: O=[N+]([O-])c1cn(CC#CI)cn1
Second: CC(C)(C)c1nnn(CC#CI)n1
The MIC of the first is 2-fold lower: 0.78 µg/mL (≈ 2.82 µM) for the first, 1.56 µg/mL (≈ 5.38 µM) for the second.

Compared with CC(C)Cc1nnnn1CC#CI, CC(C)c1nnnn1CC#CI is 2-fold higher in MIC: 3.13 µg/mL (≈ 10.8 µM) for the first, 6.25 µg/mL (≈ 22.6 µM) for the second.

Compared with COC(=O)c1cccn1CC(I)=C(I)I, CCCCCCCc1nnn(CC#CI)n1 is 4-fold lower in MIC: 3.13 µg/mL (≈ 5.77 µM) for the first, 0.78 µg/mL (≈ 2.35 µM) for the second.

The compounds below were run on Trichophyton benhamiae (assay: Antifungal activity towards Trichophyton mentagrophytes 530324 strain).
Format: functional, Arthroderma benhamiae

In order of rising MIC:
1. Fc1ccc(-c2nnn(CC#CI)n2)cc1  0.1 µg/mL (≈ 0.305 µM)
2. COc1ccc(-c2nnnn2CC#CI)cc1  0.1 µg/mL (≈ 0.294 µM)
3. CCCCCCCc1nnn(CC#CI)n1  0.1 µg/mL (≈ 0.301 µM)
4. CCOCCc1nnn(CC(I)=C(I)I)n1  0.2 µg/mL (≈ 0.357 µM)
5. O=[N+]([O-])c1ccn(CC#CI)c1  0.2 µg/mL (≈ 0.725 µM)
6. O=[N+]([O-])c1cn(CC#CI)cn1  0.2 µg/mL (≈ 0.722 µM)
7. IC#CCn1ncnn1  0.78 µg/mL (≈ 3.33 µM)
8. CN(C)c1ccc(-c2nnn(CC#CI)n2)cc1  0.78 µg/mL (≈ 2.21 µM)
9. IC#CCn1cncn1  0.78 µg/mL (≈ 3.35 µM)
10. CC(C)(C)c1nnn(CC#CI)n1  0.78 µg/mL (≈ 2.69 µM)
11. IC(I)=C(I)Cn1nnnc1C1CC1  0.78 µg/mL (≈ 1.48 µM)
12. COC(=O)c1cccn1CC(I)=C(I)I  0.78 µg/mL (≈ 1.44 µM)
13. IC#CCn1nnc(-c2ccc(C3N=NN=N3)cc2)n1  1.56 µg/mL (≈ 4.13 µM)
14. CC(C)Cc1nnnn1CC#CI  1.56 µg/mL (≈ 5.38 µM)
15. CC(C)c1nnnn1CC#CI  3.13 µg/mL (≈ 11.3 µM)
16. O=[N+]([O-])c1c(Cl)cccc1-c1cn(CC#CI)cc1Cl  6.25 µg/mL (≈ 14.8 µM)

Each compound was assayed on Trichophyton interdigitale (assay: Antifungal activity towards Trichophyton interdigitale).
Format: functional

In order of rising MIC:
1. Fc1ccc(-c2nnn(CC#CI)n2)cc1  0.1 µg/mL (≈ 0.305 µM)
2. CCCCCCCc1nnn(CC#CI)n1  0.1 µg/mL (≈ 0.301 µM)
3. COc1ccc(-c2nnnn2CC#CI)cc1  0.2 µg/mL (≈ 0.588 µM)
4. CCOCCc1nnn(CC(I)=C(I)I)n1  0.39 µg/mL (≈ 0.697 µM)
5. COC(=O)c1cccn1CC(I)=C(I)I  0.39 µg/mL (≈ 0.718 µM)
6. O=[N+]([O-])c1ccn(CC#CI)c1  0.78 µg/mL (≈ 2.83 µM)
7. IC#CCn1ncnn1  0.78 µg/mL (≈ 3.33 µM)
8. O=[N+]([O-])c1cn(CC#CI)cn1  0.78 µg/mL (≈ 2.82 µM)
9. CN(C)c1ccc(-c2nnn(CC#CI)n2)cc1  0.78 µg/mL (≈ 2.21 µM)
10. IC#CCn1cncn1  0.78 µg/mL (≈ 3.35 µM)
11. CC(C)(C)c1nnn(CC#CI)n1  0.78 µg/mL (≈ 2.69 µM)
12. IC#CCn1nnc(-c2ccc(C3N=NN=N3)cc2)n1  1.56 µg/mL (≈ 4.13 µM)
13. CC(C)Cc1nnnn1CC#CI  1.56 µg/mL (≈ 5.38 µM)
14. IC(I)=C(I)Cn1nnnc1C1CC1  1.56 µg/mL (≈ 2.96 µM)
15. CC(C)c1nnnn1CC#CI  1.56 µg/mL (≈ 5.65 µM)
16. O=[N+]([O-])c1c(Cl)cccc1-c1cn(CC#CI)cc1Cl  6.25 µg/mL (≈ 14.8 µM)
